Data as given in ChEMBL document CHEMBL1126385, “-alkoxyphenol leukotriene B4 receptor antagonists” (Bioorg Med Chem Lett, 1992).

System: Cavia porcellus
Experiment: Effective dose for inhibition of gas trapping in vivo in a guinea pig model of LTB4-induced airway obstruction
Format: functional

Question: How did the ED50 turn out when `CCOc1cc(CC)c(OCCCCCC(C)(C)c2nn[n-]n2)cc1O.[Na+]` was run?
Answer: The ED50 was 0.3 mg/kg.
